# Experimental data from PMC4848905, “Fragment Screening of Human Aquaporin 1” (International Journal of Molecular Sciences, 2016).
# T1: hAQP1 (Homo sapiens, UniProt P29972)
# T1 construct: made in house; host or cells: Spodoptera frugiperda (Sf9) insect cells, baculovirus vector pFB-LIC-Bse
# T1 sequence (P29972 1-269): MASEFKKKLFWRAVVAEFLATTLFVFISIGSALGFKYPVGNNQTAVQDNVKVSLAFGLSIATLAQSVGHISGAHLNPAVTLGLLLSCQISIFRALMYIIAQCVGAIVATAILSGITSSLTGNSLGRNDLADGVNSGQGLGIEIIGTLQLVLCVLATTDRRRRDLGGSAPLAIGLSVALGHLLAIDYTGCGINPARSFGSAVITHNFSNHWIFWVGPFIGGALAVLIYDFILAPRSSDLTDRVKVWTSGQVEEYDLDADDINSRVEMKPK
# How the values were obtained:
# hAQP1 = molecular target: T1, hAQP1; design: method as in PMID 26028295; conditions: 30 µM; cited from earlier work
# human red blood cells = system: human red blood cells; design: method as in PMID 26028295; conditions: cited from earlier work
# [1] = molecular target: the molecule itself; experiment: SEC; gel filtration on HiLoad 16/600 Superdex 200 prep grade at 4 °C; 20 mM Tris-HCl pH 8, 300 mM NaCl, 1% OG; major peak at 70 mL
# [2] = molecular target: the molecule itself; experiment: native gel or EMSA; blue-native PAGE (4%-16% Bis-Tris gel, 4 °C) of purified protein in sample buffer with 100 mM OG, 750 mM aminocaproic acid, 50 mM Bis-Tris HCl pH 7.0, 0.5 mM EDTA
Molecule,stabilization of hAQP1 (hAQP1) [°C],overall amplitude of the traces (human red blood cells),rate constant in the RBC assays (human red blood cells),stoichiometry N [1],stoichiometry N [2]
O=[N+]([O-])c1ccc2c(c1)/C(=N/N=C1c3ccccc3Cc3ccccc31)c1cc([N+](=O)[O-])cc([N+](=O)[O-])c1-2 [NSC658139],≤ 13,strong reduction in overall amplitude,did not reduce the rate constant,–,–
"human aquaporin 1 (6His-TEV-hAQP1) (natural protein, UniProt P29972 1-269, looked up, human aquaporin 1, full-length cDNA cloned in pFB-LIC-Bse downstream of an N-terminal 6His and TEV protease cleavage site; No TEV cleavage is described; An octamer band is also assigned in BN-PAGE; also called recombinant hAQP1; source: Sf9 (Spodoptera frugiperda) insect cells, purified (Ni-NTA, gel filtration) in n-octyl-β-D-glucopyranoside) MASEFKKKLFWRAVVAEFLATTLFVFISIGSALGFKYPVGNNQTAVQDNVKVSLAFGLSIATLAQSVGHISGAHLNPAVTLGLLLSCQISIFRALMYIIAQCVGAIVATAILSGITSSLTGNSLGRNDLADGVNSGQGLGIEIIGTLQLVLCVLATTDRRRRDLGGSAPLAIGLSVALGHLLAIDYTGCGINPARSFGSAVITHNFSNHWIFWVGPFIGGALAVLIYDFILAPRSSDLTDRVKVWTSGQVEEYDLDADDINSRVEMKPK",–,–,–,4,8
